Test results taken from ChEMBL document CHEMBL3102833, “Design and synthesis of guanylthiourea derivatives as potential inhibitors of Plasmodium falciparum dihydrofolate reductase enzyme” (Bioorg Med Chem Lett, 2014).

Test: Inhibition of Plasmodium falciparum recombinant dihydrofolate reductase expressed in Escherichia coli BL21 (DE3)

Row | IC50 [µM] | SMILES
1 | 100 | N=C(N)/N=C(\N)SCc1cccc(CS/C(N)=N/C(=N)N)c1
2 | 0.4 | N=C(N=C(N)N)SCc1cccc(I)c1
